Experiments:
[1] = tested on: Large crabgrass; experiment: Soil treatment test for upland field; format: in vivo, Digitaria adscendens; parameters: key: 0 = normal development, 5 = all killed; settings: 500 g/ha, 3 weeks, glass house 25° C.
Method in brief: (§1)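 Surface spray of freshly sown alluvial soil, 500 g/ha compound, water containing 0.05% surfactant. Visual 0–5 damage rating versus untreated after 3 weeks, glasshouse at 25° C average.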

[2] = tested on: velvetleaf; experiment: Foliar spread test for upland field; format: in vivo, Abutilon theophrasti; parameters: key: 0 = normal development, 5 = all killed (6 ranks vs. untreated); settings: foliar spray, 500 ppm, 3 weeks, glass house 25° C.
Method in brief: (§2)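 Seeds were sown in volcanic ash soil in Wagner pots and grown about 2 weeks in a glass house at an average 25° C. Wettable-powder formulations diluted to 500 ppm in water with 0.5% surfactant were sprayed uniformly over the plants. After 3 further weeks at 25° C, damage was scored 0 (normal) to 5 (all killed) against untreated plants.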

[3] = tested on: livid amaranth; experiment: Soil treatment test for upland field; format: in vivo, Amaranthus lividus; parameters: key: 0 = normal development, 5 = all killed; settings: 500 g/ha, 3 weeks, glass house 25° C.
Method in brief: as §1

[4] = tested on: blackgrass; experiment: Soil treatment test for upland field; format: in vivo, Alopecurus aegualis; parameters: key: 0 = normal development, 5 = all killed; settings: 500 g/ha, 3 weeks, glass house 25° C.
Method in brief: as §1

[5] = tested on: Cyperus serotinus Rottb.; experiment: Herbicidal test for paddy field; format: in vivo; settings: 500 g/ha, dropwise addition to paddy water at 1.5 leaf stage of barnyard grass; glass house 25° C., 3 weeks; rank 0-5 vs non-treated district
Protocol: (§3) Wagner pots, each having an area of 1/5000 are, were packed with Ube soil (alluvial soil) and planted with seeds or tubers of young rice plant, barnyard grass, bulrush, Cyperus serotinus Rottb., arrowhead and monochoria. Then, the pots were filled with water to a depth of 3 cm.
(§4) Each wettable powder of the desired Compounds (I) shown in Tables 1 to 21, 24, 25, 28 and 29 prepared in accordance with Example 2 was diluted with water containing a surfactant (0.05%) and subjected to dropwise addition treatment by using pipet so that an effective concentration of the compound (I) in each herbicide became 500 g/ha at 1.5 leaf stage of barnyard grass.
(§5) These plants were controlled in a glass house at an average temperature of 25° C. for 3 weeks, and then herbicidal effects thereof were investigated.
(§6) The herbicidal effects are evaluated according to the following 6 ranks as compared with non-treated district. (0: normal development, 1: Less damaged, 2: Slightly damaged, 3: Moderately damaged, 4: Severely damaged, 5: All killed). Incidentally, “-” in the column means not investigated.

[6] = tested on: blackgrass; experiment: Foliar spread test for upland field; format: in vivo, Alopecurus aegualis; parameters: key: 0 = normal development, 5 = all killed (6 ranks vs. untreated); settings: foliar spray, 500 ppm, 3 weeks, glass house 25° C.
Method in brief: as §2

[7] = tested on: Large crabgrass; experiment: Foliar spread test for upland field; format: in vivo, Digitaria adscendens; parameters: key: 0 = normal development, 5 = all killed (6 ranks vs. untreated); settings: foliar spray, 500 ppm, 3 weeks, glass house 25° C.
Method in brief: as §2

[8] = tested on: barnyard grass; experiment: Soil treatment test for upland field; format: in vivo, Eschinochloa crusgalli; parameters: key: 0 = normal development, 5 = all killed; settings: 500 g/ha, 3 weeks, glass house 25° C.
Method in brief: as §1

[9] = tested on: solgum; experiment: Soil treatment test for upland field; format: in vivo; parameters: key: 0 = normal development, 5 = all killed; settings: 500 g/ha, 3 weeks, glass house 25° C.
Method in brief: as §1

[10] = tested on: sugar beat; experiment: Soil treatment test for upland field; format: in vivo; parameters: key: 0 = normal development, 5 = all killed; settings: 500 g/ha, 3 weeks, glass house 25° C.
Method in brief: as §1

[11] = tested on: corn; experiment: Soil treatment test for upland field; format: in vivo; parameters: key: 0 = normal development, 5 = all killed; settings: 500 g/ha, 3 weeks, glass house 25° C.
Method in brief: as §1

[12] = tested on: soybean; experiment: Soil treatment test for upland field; format: in vivo; parameters: key: 0 = normal development, 5 = all killed; settings: 500 g/ha, 3 weeks, glass house 25° C.
Method in brief: as §1

[13] = tested on: wheat; experiment: Soil treatment test for upland field; format: in vivo; parameters: key: 0 = normal development, 5 = all killed; settings: 500 g/ha, 3 weeks, glass house 25° C.
Method in brief: as §1

[14] = tested on: barnyard grass; experiment: Herbicidal test for paddy field; format: in vivo, Eschinochloa crusgalli; settings: 500 g/ha, dropwise addition to paddy water at 1.5 leaf stage of barnyard grass; glass house 25° C., 3 weeks; rank 0-5 vs non-treated district
Protocol: as §3, §4, §5, §6

[15] = tested on: annual bluegrass; experiment: Foliar spread test for upland field; format: in vivo, Poa annua; parameters: key: 0 = normal development, 5 = all killed (6 ranks vs. untreated); settings: foliar spray, 500 ppm, 3 weeks, glass house 25° C.
Method in brief: as §2

[16] = tested on: green foxtail; experiment: Soil treatment test for upland field; format: in vivo, Setaria viridis; parameters: key: 0 = normal development, 5 = all killed; settings: 500 g/ha, 3 weeks, glass house 25° C.
Method in brief: as §1

[17] = tested on: common lambsquarters; experiment: Soil treatment test for upland field; format: in vivo, Chenopodium album; parameters: key: 0 = normal development, 5 = all killed; settings: 500 g/ha, 3 weeks, glass house 25° C.
Method in brief: as §1

[18] = tested on: solgum; experiment: Foliar spread test for upland field; format: in vivo; parameters: key: 0 = normal development, 5 = all killed (6 ranks vs. untreated); settings: foliar spray, 500 ppm, 3 weeks, glass house 25° C.
Method in brief: as §2

[19] = tested on: sugar beat; experiment: Foliar spread test for upland field; format: in vivo; parameters: key: 0 = normal development, 5 = all killed (6 ranks vs. untreated); settings: foliar spray, 500 ppm, 3 weeks, glass house 25° C.
Method in brief: as §2

[20] = tested on: corn; experiment: Foliar spread test for upland field; format: in vivo; parameters: key: 0 = normal development, 5 = all killed (6 ranks vs. untreated); settings: foliar spray, 500 ppm, 3 weeks, glass house 25° C.
Method in brief: as §2

[21] = tested on: soybean; experiment: Foliar spread test for upland field; format: in vivo; parameters: key: 0 = normal development, 5 = all killed (6 ranks vs. untreated); settings: foliar spray, 500 ppm, 3 weeks, glass house 25° C.
Method in brief: as §2

[22] = tested on: cotton; experiment: Foliar spread test for upland field; format: in vivo; parameters: key: 0 = normal development, 5 = all killed (6 ranks vs. untreated); settings: foliar spray, 500 ppm, 3 weeks, glass house 25° C.
Method in brief: as §2

[23] = tested on: wheat; experiment: Foliar spread test for upland field; format: in vivo; parameters: key: 0 = normal development, 5 = all killed (6 ranks vs. untreated); settings: foliar spray, 500 ppm, 3 weeks, glass house 25° C.
Method in brief: as §2

[24] = tested on: common lambsquarters; experiment: Foliar spread test for upland field; format: in vivo, Chenopodium album; parameters: key: 0 = normal development, 5 = all killed (6 ranks vs. untreated); settings: foliar spray, 500 ppm, 3 weeks, glass house 25° C.
Method in brief: as §2

[25] = tested on: morning glory; experiment: Soil treatment test for upland field; format: in vivo, Ipomoea spps.; parameters: key: 0 = normal development, 5 = all killed; settings: 500 g/ha, 3 weeks, glass house 25° C.
Method in brief: as §1

[26] = tested on: bulrush; experiment: Herbicidal test for paddy field; format: in vivo, Scrips juncoides; settings: 500 g/ha, dropwise addition to paddy water at 1.5 leaf stage of barnyard grass; glass house 25° C., 3 weeks; rank 0-5 vs non-treated district
Protocol: as §3, §4, §5, §6

[27] = tested on: green foxtail; experiment: Foliar spread test for upland field; format: in vivo, Setaria viridis; parameters: key: 0 = normal development, 5 = all killed (6 ranks vs. untreated); settings: foliar spray, 500 ppm, 3 weeks, glass house 25° C.
Method in brief: as §2

[28] = tested on: barnyardgrjass; experiment: Foliar spread test for upland field; format: in vivo, Eschinochloa crusgalli; parameters: key: 0 = normal development, 5 = all killed (6 ranks vs. untreated); settings: foliar spray, 500 ppm, 3 weeks, glass house 25° C.
Method in brief: as §2

[29] = tested on: morning glory; experiment: Foliar spread test for upland field; format: in vivo, Ipomoea spps.; parameters: key: 0 = normal development, 5 = all killed (6 ranks vs. untreated); settings: foliar spray, 500 ppm, 3 weeks, glass house 25° C.
Method in brief: as §2

[30] = tested on: annual bluegrass; experiment: Soil treatment test for upland field; format: in vivo, Poa annua; parameters: key: 0 = normal development, 5 = all killed; settings: 500 g/ha, 3 weeks, glass house 25° C.
Method in brief: as §1

[31] = tested on: livid amaranth; experiment: Foliar spread test for upland field; format: in vivo, Amaranthus lividus; parameters: key: 0 = normal development, 5 = all killed (6 ranks vs. untreated); settings: foliar spray, 500 ppm, 3 weeks, glass house 25° C.
Method in brief: as §2

[32] = tested on: velvetleaf; experiment: Soil treatment test for upland field; format: in vivo, Abutilon theophrasti; parameters: key: 0 = normal development, 5 = all killed; settings: 500 g/ha, 3 weeks, glass house 25° C.
Method in brief: as §1

Row | SMILES | Effects Large crabgrass [1] | Effects Velvetleaf [2] | Effects Livid amaranth [3] | Effects Blackgrass [4] | Effects Cyperus serotinus Rottb. [5] | Effects Blackgrass [6] | Effects Large crabgrass [7] | Effects Barnyardgrass [8] | Effects Solgum [9] | Effects Sugar beat [10] | Effects Corn [11] | Effects Soybean [12] | Effects Wheat [13] | Effects Barnyardgrass [14] | Effects Annual bluegrass [15] | Effects Green foxtail [16] | Effects Common lambsquarters [17] | Effects Solgum [18] | Effects Sugar beat [19] | Effects Corn [20] | other results
1 | CCC(=Cc1cccc(C(F)(F)F)c1)c1nc2cc(C#N)ccc2o1 [I-c-81] | 5 | 3 | 5 | 5 | 4 | 3 | 4 | 5 | 2 | 5 | 2 | 3 | 3 | 5 | 4 | 5 | 5 | 3 | 4 | 3 | Effects Soybean [21]: 5; Effects Sotton [22]: 4; Effects Wheat [23]: 2; Effects Common lambsquarters [24]: 5; Effects Morning glory [25]: 5; Effects Bulrush [26]: 5; Effects Green foxtail [27]: 4; Effects Barnyardgrass [28]: 3; Effects Morning glory [29]: 5; Effects Annual bluegrass [30]: 5; Effects Livid amaranth [31]: 5; Effects Velvetleaf [32]: 5
2 | CCC(=Cc1cccc(C(F)(F)F)c1)c1nc2cc(C(F)(F)F)ccc2o1 [I-c-86] | 5 | 3 | 5 | 5 | 3 | 3 | 4 | 5 | 1 | 5 | 1 | 0 | 0 | 5 | 4 | 5 | 5 | 2 | 4 | 3 | Effects Soybean [21]: 5; Effects Sotton [22]: 4; Effects Wheat [23]: 2; Effects Common lambsquarters [24]: 5; Effects Morning glory [25]: 5; Effects Bulrush [26]: 4; Effects Green foxtail [27]: 4; Effects Barnyardgrass [28]: 2; Effects Morning glory [29]: 5; Effects Annual bluegrass [30]: 5; Effects Livid amaranth [31]: 5; Effects Velvetleaf [32]: 5
3 | CCC(=Cc1cccc(C(F)(F)F)c1)c1nc2cc(C#N)c(F)cc2o1 [I-c-137] | 5 | 4 | 5 | 5 | 2 | 3 | 4 | 5 | 2 | 5 | 2 | 3 | 1 | 4 | 4 | 5 | 5 | 2 | 4 | 3 | Effects Soybean [21]: 5; Effects Sotton [22]: 4; Effects Wheat [23]: 2; Effects Common lambsquarters [24]: 5; Effects Morning glory [25]: 5; Effects Bulrush [26]: 4; Effects Green foxtail [27]: 4; Effects Barnyardgrass [28]: 3; Effects Morning glory [29]: 5; Effects Annual bluegrass [30]: 5; Effects Livid amaranth [31]: 5; Effects Velvetleaf [32]: 5
